# Target: T1, AIPL1 (full-length mouse AIPL1) (Mus musculus, UniProt Q924K1)
# T1 construct: full-length (aa 1-328), His6-tagged from pET15b, expressed in E. coli BL21(DE3), purified by Ni-NTA, Mono Q and SEC; prenyl site in the FKBP domain
# T1 sequence (Q924K1 1-328): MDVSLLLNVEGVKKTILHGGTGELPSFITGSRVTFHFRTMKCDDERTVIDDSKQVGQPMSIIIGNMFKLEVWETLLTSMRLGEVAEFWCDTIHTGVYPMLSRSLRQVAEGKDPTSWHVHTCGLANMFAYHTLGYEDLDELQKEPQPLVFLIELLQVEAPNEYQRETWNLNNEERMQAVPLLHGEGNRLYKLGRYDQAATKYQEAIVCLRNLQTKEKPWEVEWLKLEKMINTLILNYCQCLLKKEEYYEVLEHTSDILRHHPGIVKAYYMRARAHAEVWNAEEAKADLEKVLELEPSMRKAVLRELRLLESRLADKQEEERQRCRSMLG
# Test: fluorescence titration, ex […] nm, em […] nm, fit with ligand depletion
# Assay type: binding
compound,measurement,value
CC(C)=CCC/C(C)=C/CC/C(C)=C/CSC[C@H](NC(=O)CCCCCNC(=O)Cc1c(C)c2ccc(N)cc2oc1=O)C(=O)O [farnesyl-Cys-AMCA],Kd,700 ± 100 nM

# Source: paper PMC8857470, “Molecular insights into the maturation of phosphodiesterase 6 by the specialized chaperone complex of HSP90 with AIPL1” (The Journal of Biological Chemistry, 2022)
